Legend:
persian speedwell = assay: Test Example 5: herbicidal effect by foliage application, plastic box (Table 20, symbol R); format: in vivo, Persian speedwell (Veronica persica); settings: foliage application, 320 g/ha, evaluated three weeks after application
Method in brief: (§1)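 Sow seeds spot-wise in sterilized diluvial soil; cover with ~1.5 cm soil. Grow 14 days in greenhouse, 25° C. to 30° C. Spray foliage with emulsion diluted to predetermined amount. Rate effect after 3 weeks.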

blackgrass = assay: Test Example 5: herbicidal effect by foliage application, plastic box (Table 20, symbol J); format: in vivo, blackgrass (Alopecurus myosuroides); settings: foliage application, evaluated three weeks after application
Method in brief: as §1

Japanese bulrush = assay: Test Example 2: herbicidal activity, application during weed generation under submerged conditions (Table 17, symbol B); format: in vivo, Japanese bulrush (Schoenoplectus juncoides); settings: AAH 320 g/ha; application during weed generation, submerged conditions
Method in brief: (§2)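 Wagner pot, alluvial soil, 4 cm flood; mixed sowing of all species; greenhouse 25° C.–30° C. Emulsifiable formulation, water-diluted to predetermined dose, applied to paddy water at 1–2 leaf stage. Effect rated at 3 wk using the earlier test's scoring criteria.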

green foxtail = assay: Test Example 5: herbicidal effect by foliage application, plastic box (Table 20, symbol G); format: in vivo, green foxtail (Setaria viridis); settings: foliage application, evaluated three weeks after application
Method in brief: as §1

windgrass = assay: Test Example 5: herbicidal effect by foliage application, plastic box (Table 20, symbol L); format: in vivo, windgrass (Apera spica-venti); settings: foliage application, evaluated three weeks after application
Method in brief: as §1

wild oat = assay: Test Example 5: herbicidal effect by foliage application, plastic box (Table 20, symbol I); format: in vivo, wild oat (Avena fatua); settings: foliage application, evaluated three weeks after application
Method in brief: as §1

lambsquarters = assay: Test Example 5: herbicidal effect by foliage application, plastic box (Table 20, symbol O); format: in vivo, lambsquarters (Chenopodium album); settings: foliage application, evaluated three weeks after application
Method in brief: as §1

barnyard grass [1] = assay: Test Example 5: herbicidal effect by foliage application, plastic box (Table 20, symbol H); format: in vivo, barnyard grass (Echinochloa crus-galli); settings: foliage application, evaluated three weeks after application
Method in brief: as §1

redroot pigweed = assay: Test Example 5: herbicidal effect by foliage application, plastic box (Table 20, symbol N); format: in vivo, redroot pigweed (Amaranthus retroflexus); settings: foliage application, evaluated three weeks after application
Method in brief: as §1

southern crabgrass = assay: Test Example 5: herbicidal effect by foliage application, plastic box (Table 20, symbol F); format: in vivo, southern crabgrass (Digitaria ciliaris); settings: foliage application, evaluated three weeks after application
Method in brief: as §1

velvetleaf = assay: Test Example 5: herbicidal effect by foliage application, plastic box (Table 20, symbol M); format: in vivo, velvetleaf (Abutilon theophrasti); settings: foliage application, evaluated three weeks after application
Method in brief: as §1

Italian ryegrass = assay: Test Example 5: herbicidal effect by foliage application, plastic box (Table 20, symbol K); format: in vivo, Italian ryegrass (Lolium multiflorum); settings: foliage application, evaluated three weeks after application
Method in brief: as §1

barnyard grass [2] = assay: Test Example 3: herbicidal effect by foliage application, Wagner pot (Table 18, symbol H); format: in vivo, barnyard grass (Echinochloa crus-galli)
Method in brief: (§3)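 Plants were sown in alluvial soil held under 0.1–0.5 cm standing water and grown 14 days in a greenhouse at 25–30 °C. An emulsifiable formulation, water-diluted to the set dose, was then sprayed onto the foliage, and effects were scored three weeks later using previously defined criteria.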

oval-leafed pondweed = assay: Test Example 2: herbicidal activity, application during weed generation under submerged conditions (Table 17, symbol C); format: in vivo, oval-leafed pondweed (Monochoria vaginalis); settings: AAH 320 g/ha; application during weed generation, submerged conditions
Method in brief: as §2

late watergrass = assay: Test Example 2: herbicidal activity, application during weed generation under submerged conditions (Table 17, symbol A); format: in vivo, late watergrass (Echinochloa oryzicola); settings: AAH 320 g/ha; application during weed generation, submerged conditions
Procedure: [Test Example 2] Herbicidal Activity Test by Application during Weed Generation under Submerged Conditions After alluvial soil was placed into 1/10000 are of Wagner pot, water was poured and mixed to form a submerged condition having a water depth of 4 cm. Seeds of late watergrass, Japanese bulrush, and oval-leafed pondweed were sowed in a mixed manner in the aforementioned pot, and the pot was placed in a greenhouse at 25° C. to 30° C. for growth of the plants. When late watergrass, Japanese bulrush, and oval-leafed pondweed were grown to one leaf stage to two leaf stage, the emulsion agent of the compound of the present invention prepared according to Formulation Example 2 was diluted with water so as to achieve a predetermined herbicide amount, and the diluted emulsion agent was applied to the surface of the water. Three weeks after the herbicide application, the effect of the herbicide on each plant was evaluated according to the criteria of Test Example 1.

Chinese sprangletop = assay: Test Example 3: herbicidal effect by foliage application, Wagner pot (Table 18, symbol D); format: in vivo, chinese sprangletop (Leptochloa chinensis)
Method in brief: as §3

rice flat sedge = assay: Test Example 3: herbicidal effect by foliage application, Wagner pot (Table 18, symbol E); format: in vivo, rice flat sedge (Cyperus iria)
Method in brief: as §3

chickweed = assay: Test Example 5: herbicidal effect by foliage application, plastic box (Table 20, symbol P); format: in vivo, common chickweed (Stellaria media); settings: foliage application, evaluated three weeks after application
Method in brief: as §1

[3] = amount of applied herbicide 320 g/ha

**Q.** `Cc1nn(C)c(=O)c(-c2c(-c3ccc(OCc4ccccc4)cc3)sc3ccc(F)cc23)c1OCc1ccccc1` [2-065] was tested. Which “herbicidal effect on R: persian speedwell” value (persian speedwell) did it give?
**A.** 0 (Herbicidal rate of 5% or less (almost no effect))

**Q.** What about the “herbicidal effect on J: blackgrass” value (blackgrass; 320 g/ha) of the same compound?
**A.** 0 (Herbicidal rate of 5% or less (almost no effect))

**Q.** What about the “herbicidal effect rating, B: Japanese bulrush” value (Japanese bulrush) of the same compound?
**A.** 0 (Herbicidal rate of 5% or less (almost no effect))

**Q.** What about the “herbicidal effect on G: green foxtail” value (green foxtail; 320 g/ha) of the same compound?
**A.** 0 (Herbicidal rate of 5% or less (almost no effect))

**Q.** What about the “herbicidal effect on L: windgrass” value (windgrass; 320 g/ha) of the same compound?
**A.** 0 (Herbicidal rate of 5% or less (almost no effect))

**Q.** And the “herbicidal effect on I: wild oat” value (wild oat; 320 g/ha)?
**A.** 0 (Herbicidal rate of 5% or less (almost no effect))

**Q.** And the “herbicidal effect on O: lambsquarters” value (lambsquarters; 320 g/ha)?
**A.** 1 (Herbicidal rate of 5% or more and less than 20%)

**Q.** What about the “herbicidal effect on H: barnyard grass” value (barnyard grass [1]; 320 g/ha) of the same compound?
**A.** 0 (Herbicidal rate of 5% or less (almost no effect))

**Q.** And the “herbicidal effect on N: redroot pigweed” value (redroot pigweed; 320 g/ha)?
**A.** 3 (Herbicidal rate of 40% or more and less than 70%)

**Q.** What about the “herbicidal effect on F: southern crabgrass” value (southern crabgrass; 320 g/ha) of the same compound?
**A.** 0 (Herbicidal rate of 5% or less (almost no effect))

**Q.** And the “herbicidal effect on M: velvetleaf” value (velvetleaf; 320 g/ha)?
**A.** 0 (Herbicidal rate of 5% or less (almost no effect))

**Q.** And the “herbicidal effect on K: Italian ryegrass” value (Italian ryegrass; 320 g/ha)?
**A.** 0 (Herbicidal rate of 5% or less (almost no effect))

**Q.** What about the “herbicidal effect on H (barnyard grass), rating 0-5” value (barnyard grass [2]; 320 g/ha) of the same compound?
**A.** 3 (Herbicidal rate of 40% or more and less than 70%)

**Q.** And the “herbicidal effect rating, C: oval-leafed pondweed” value (oval-leafed pondweed)?
**A.** 0 (Herbicidal rate of 5% or less (almost no effect))

**Q.** And the “herbicidal effect rating, A: late watergrass” value (late watergrass)?
**A.** 3 (Herbicidal rate of 40% or more and less than 70%)

**Q.** And the “herbicidal effect on D (Chinese sprangletop), rating 0-5” value (Chinese sprangletop; 320 g/ha)?
**A.** 3 (Herbicidal rate of 40% or more and less than 70%)

**Q.** What about the “herbicidal effect on E (rice flat sedge), rating 0-5” value (rice flat sedge; 320 g/ha) of the same compound?
**A.** 3 (Herbicidal rate of 40% or more and less than 70%)

**Q.** What about the “herbicidal effect on P: chickweed” value (chickweed; 320 g/ha) of the same compound?
**A.** 0 (Herbicidal rate of 5% or less (almost no effect))

**Q.** What does the source list for `COCCOc1cccc(-c2sc3ccc(F)cc3c2-c2c(O)c(C)nn(C)c2=O)c1` [2-271]?
**A.** J: blackgrass, herbicidal effect (criteria 0-5) (blackgrass; AAH 320 g/ha): 0 (Herbicidal rate of 5% or less (almost no effect)); herbicidal effect rating, B: Japanese bulrush (Japanese bulrush): 0 (Herbicidal rate of 5% or less (almost no effect)); G: green foxtail, herbicidal effect (criteria 0-5) (green foxtail; AAH 320 g/ha): 0 (Herbicidal rate of 5% or less (almost no effect)); L: windgrass, herbicidal effect (criteria 0-5) (windgrass; AAH 320 g/ha): 0 (Herbicidal rate of 5% or less (almost no effect)); I: wild oat, herbicidal effect (criteria 0-5) (wild oat; AAH 320 g/ha): 0 (Herbicidal rate of 5% or less (almost no effect)); O: lambsquarters, herbicidal effect (criteria 0-5) (lambsquarters; AAH 320 g/ha): 0 (Herbicidal rate of 5% or less (almost no effect)); H: barnyard grass, herbicidal effect (criteria 0-5) (barnyard grass [1]; AAH 320 g/ha): 0 (Herbicidal rate of 5% or less (almost no effect)); N: redroot pigweed, herbicidal effect (criteria 0-5) (redroot pigweed; AAH 320 g/ha): 3 (Herbicidal rate of 40% or more and less than 70%); F: southern crabgrass, herbicidal effect (criteria 0-5) (southern crabgrass; AAH 320 g/ha): 0 (Herbicidal rate of 5% or less (almost no effect)); M: velvetleaf, herbicidal effect (criteria 0-5) (velvetleaf; AAH 320 g/ha): 0 (Herbicidal rate of 5% or less (almost no effect)); K: Italian ryegrass, herbicidal effect (criteria 0-5) (Italian ryegrass; AAH 320 g/ha): 0 (Herbicidal rate of 5% or less (almost no effect)); herbicidal effect on H: barnyard grass (barnyard grass [2]; [3]): 3 (Herbicidal rate of 40% or more and less than 70%); herbicidal effect rating, C: oval-leafed pondweed (oval-leafed pondweed): 0 (Herbicidal rate of 5% or less (almost no effect)); herbicidal effect rating, A: late watergrass (late watergrass): 3 (Herbicidal rate of 40% or more and less than 70%); herbicidal effect on D: Chinese sprangletop (Chinese sprangletop; [3]): 0 (Herbicidal rate of 5% or less (almost no effect)); herbicidal effect on E: rice flat sedge (rice flat sedge; [3]): 3 (Herbicidal rate of 40% or more and less than 70%); P: chickweed, herbicidal effect (criteria 0-5) (chickweed; AAH 320 g/ha): 5 (Herbicidal rate of 90% or more (almost completely withered))
